Assay results taken from patent US11680086B2, “Lipopeptide for potently inhibiting HIV, derivative thereof, pharmaceutical composition thereof and use thereof” (Institute of Pathogen Biology, Chinese Academy of Medical …, priority 2017, dated 2023).
Peptide text beside a SMILES is read from it. * marks the point of attachment. Stearoyl = CCCCCCCCCCCCCCCCCC(=O)*

Tests used:
[1] = system: HIV-1 strain NL4-3 pseudovirus (D36G mutant); assay type: cell-based
Experimental: The supernatant was discarded from the wells. […] Inhibition rate (%) and IC50 value were calculated.

HIV-1 strain JRCSF = assay type: cell-based
Experimental: Inhibition rate (%) and IC50 value were calculated.

[2] = system: NL4-3 pseudovirus carrying T-20 resistance mutation site of NHR; test: inhibition of T-20 resistant strains; assay type: cell-based, HIV-1; conditions: strains with single or double mutations
[3] = pharmacokinetic analysis in SD rats; conditions: for level at 72 h / level at time molar at 72 h: both, SD, rat, serum, 6 mg/kg
Experimental: The pharmacokinetic parameters were calculated using a non-compartmental analysis model (NCA).

SHIV strain SF162P3 = test: therapeutic effect in monkey infection model; assay type: in vivo, Chinese rhesus monkeys
Experimental: Six adult Chinese rhesus monkeys (numbered A to F, half male and half female) were used in the test, and antibodies to SIV, herpesvirus B, and simian T-lymphotropic virus were determined to be negative. The SHIV strain SF162P3 was provided by the AIDS Reagent Program of NIH in the United States, and was amplified on peripheral blood mononuclear cells (PBMC) of the monkeys, and the TCID50 was determined. Monkeys were intravenously inoculated with 1,000 TCID50 of the SF162P3 virus, and changes in plasma viral load (RNA copy number/ml) in the monkeys were measured periodically. […] The plasma samples were isolated from monkey bloods collected at predetermined time points and the plasma viral load (RNA copy number/ml) was determined by quantitative real-time reverse transcription-polymerase chain reaction (qRT-PCR). The plasma RNA was extracted by a conventional method and cDNA samples were synthesized by reverse transcription reaction. […] The PCR device used was PE AB17500. The sensitivity of the assay was 100 RNA copies per milliliter of plasma sample.

Figure 9 = test: Figure 9
Excerpt: Table printed on a drawing sheet, Figure 9
First reader's note: Panel B of Figure 9; each value cell holds the value ± its error, and each column is one route of administration.

SMILES: CCCCCCCCCCCCCCCCCC(=O)NCCCC[C@H](NC(=O)[C@H](CCC(=O)O)NC(=O)[C@H](CC(C)C)NC(=O)[C@H](CCCCN)NC(=O)[C@H](CCCCN)NC(=O)[C@H](CC(C)C)NC(=O)[C@H](CCC(=O)O)NC(=O)[C@H](CCC(=O)O)NC(=O)[C@H](CCC(=O)O)NC(=O)[C@H](CC(N)=O)NC(=O)[C@H](CCCCN)NC(=O)[C@H](CCCCN)NC(=O)[C@H](CCC(N)=O)NC(=O)[C@H](CCC(N)=O)NC(=O)[C@H](CCC(=O)O)NC(=O)[C@H](CCC(=O)O)NC(=O)[C@H](C)NC(=O)[C@H](CCCCN)NC(=O)[C@H](CCCCN)NC(=O)[C@H](CC(C)C)NC(=O)[C@H](CC(C)C)NC(=O)[C@H](CCC(=O)O)NC(=O)[C@H](CCC(=O)O)NC(=O)[C@@H](NC(=O)[C@H](CCCCN)NC(=O)[C@H](CCC(N)=O)NC(=O)[C@H](CCC(=O)O)NC(=O)[C@H](Cc1c[nH]c2ccccc12)NC(C)=O)[C@@H](C)CC)C(N)=O [LP-80] (Ac-WEQKIEELLKKAEEQQKKNEEELKKLEK(Stearoyl)-NH2)
- IC50 ([1]; Entry of NL4-3 (D36G), read-out: IC50 for inhibiting pseudovirus): 2 pM
- inhibitory activity against NL4-3 entry (in words) ([1]; compared with LP-52): even greater than that of C16-modified LP-52
- IC50 (HIV-1 strain JRCSF; Replication of JRCSF, read-out: IC50 for inhibiting replicative virus): 2 pM
- inhibitory activity against JRCSF replication (in words) (HIV-1 strain JRCSF; compared with LP-52): even greater than that of C16-modified LP-52
- inhibitory activity against T-20 resistant strains (in words) [2]: thousands to tens of thousands of times better than that of the LP-40
- serum concentration as folds of the IC50 value (2 pM) ([3]; 72 hours after intravenous injection): 1010.56 folds
- serum concentration as folds of the IC50 value (2 pM) ([3]; 72 hours after subcutaneous injection): 894.51 folds
- level at 72 h ([3]; iv): 7.75 ng/mL
- level at time molar at 72 h ([3]; iv): 2.02 nM
- level at 72 h ([3]; sc): 6.86 ng/mL
- level at time molar at 72 h ([3]; sc): 1.79 nM
- monkeys with viral load decreased below the detectable level line (SHIV strain SF162P3; 2 mg/kg s.c. once a day, fourth day after the treatment, six monkeys): three of the six monkeys
- rebound of virus (SHIV strain SF162P3; 4th day after administration was stopped): did not rebound
- rebound of virus (SHIV strain SF162P3; 10th day after administration was stopped): one of the monkeys (monkey A)
- monkeys with viral load not detected (SHIV strain SF162P3; 14th day after the treatment): all six monkeys
- rebound of virus (SHIV strain SF162P3; 17th day after administration was stopped): the other 5 monkeys except the monkey C
- rebound of viral load (SHIV strain SF162P3; 24th day after administration was stopped): all monkeys
- therapeutic effect (in words) (SHIV strain SF162P3; SHIV SF162P3 infected rhesus monkeys): powerful antiviral therapeutic effect
- viral load during subsequent treatment (SHIV strain SF162P3; administration once per 4 days for 4 weeks): controlled below the detectable level line
- monkeys with viral load not detected (SHIV strain SF162P3; eighth day after the treatment): five monkeys
- Fabs | % (Figure 9): 39.53%
